15 molecules from patent publication US12187684B2, “Benzimidazole derivatives as modulators of retinoid-related orphan receptor gamma (RORγ) and pharmaceutical use thereof” (Jiangsu Hengrui Medicine Co., Ltd., priority 2018, dated 2025) can be followed below.

Structures are written as SMILES.

In one experiment the target is T1, RORγ LBD-GST tagged (Homo sapiens, UniProt P51449).
T1 construct: RORγ LBD-GST tagged (Cat No. RORC-114H, Creative Biomart); purchased Creative Biomart RORC-114H
T1 sequence (P51449 269-508 limits assumed): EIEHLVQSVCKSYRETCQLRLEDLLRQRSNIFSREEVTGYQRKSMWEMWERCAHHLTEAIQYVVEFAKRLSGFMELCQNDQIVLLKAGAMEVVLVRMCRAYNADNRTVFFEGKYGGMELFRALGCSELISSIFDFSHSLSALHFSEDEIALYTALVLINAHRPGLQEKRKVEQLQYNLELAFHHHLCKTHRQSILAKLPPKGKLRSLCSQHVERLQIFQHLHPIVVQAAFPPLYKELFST
As to the kind of experiment: LanthaScreen TR-FRET RORγ coactivator assay. The format is biochemical. Conditions: Fluorescein-D22 coactivator peptide, 1 hour room temperature. In outline: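 GST-tagged RORγ LBD (25 ng/reaction) was incubated in coregulator buffer D with 5 mM DTT and compound (top 3 μM, 7-fold steps, 7 doses), then with a mix containing 0.6 μM fluorescein-D22 peptide and 8 nM Tb anti-GST antibody. After 1 h at room temperature in the dark, 520/495 nm TR-FRET was read. IC50 came from log concentration versus percent inhibition.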

The subject of experiment [1] is IL-17 production, human PBMC cells. As to the kind of experiment: IL-17 production assay using human PBMC. Conditions: human PBMC stimulated by cytostim for 3 days, IL-17 ELISA of supernatant. In kind it is cell-based. In outline:
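Cryopreserved human PBMCs, 1×10^5 per well in TexMACS, were treated with compound or vehicle (<0.5% DMSO) and stimulated with Cytostim (10 μL/mL) for 3 days at 37 °C. Supernatant IL-17 was measured by ELISA. IC50 was taken from concentration versus percent inhibition.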

`O=S(=O)(CC1CC1)c1ccc(C(O)c2nc3c(Cl)c(-c4ccccc4OC(F)(F)F)c(Cl)cc3[nH]2)cc1` (stereo not drawn) [Example 68, (4-((cyclopropylmethyl)sulfonyl)phenyl)(4,6-dichloro-5-(2-(trifluoromethoxy)phenyl)-1H-benzo[d]imidazol-2-yl)methanol]: the IC50 at RORγ LBD-GST tagged was 0.03 µM; in experiment [1] (Homo sapiens, PBMC, 72 h), 0.004 µM.
On to `CCS(=O)(=O)c1ccc(C(CC(N)=O)c2nc3c(Cl)c(N4CCC(F)(F)CC4)c(Cl)cc3[nH]2)cc1` (single isomer, unassigned) [the longer retention time of 146 and 147, 3-(4,6-dichloro-5-(4,4-difluoropiperidin-1-yl)-1H-benzo[d]imidazol-2-yl)-3-(4-(ethylsulfonyl)phenyl)propanamide], for which the IC50 amounted to 0.004 µM against RORγ LBD-GST tagged and 0.014 µM in experiment [1].
Turning to `CC(C)Oc1ccccc1-c1c(Cl)cc2nc(C(CO)c3ccc(S(=O)(=O)CC4CC4)cc3)[nH]c2c1Cl` (stereo not drawn) [Example 134, 2-(4-((cyclopropylmethyl)sulfonyl)phenyl)-2-(5,7-dichloro-6-(2-isopropoxyphenyl)-1H-benzo[d]imidazol-2-yl)ethanol], the IC50 at RORγ LBD-GST tagged is 0.006 µM; in experiment [1] (Homo sapiens, PBMC, 72 h), 0.003 µM.
In the same order, the values of `CCS(=O)(=O)c1ccc(C(O)c2nc3c(Cl)c(-c4ccccc4C#N)c(Cl)cc3[nH]2)cc1` (stereo not drawn) [Example 23, 2-(4,6-dichloro-2-((4-(ethylsulfonyl)phenyl)(hydroxy)methyl)-1H-benzo[d]imidazol-5-yl)benzonitrile] are 0.318 µM and 0.075 µM.
With `CCS(=O)(=O)c1ccc(C(CCO)c2nc3c(Cl)c(N4CCC(F)(F)CC4)c(Cl)cc3[nH]2)cc1` (stereo not drawn) [Example 145, 3-(4,6-dichloro-5-(4,4-difluoropiperidin-1-yl)-1H-benzo[d]imidazol-2-yl)-3-(4-(ethylsulfonyl)phenyl)propan-1-ol], the IC50 against RORγ LBD-GST tagged was 0.068 µM; in experiment [1] (Homo sapiens, PBMC, 72 h) it was 0.01 µM.
In the case of `O=S(=O)(CC1CC1)c1ccc(C(CCN2CCOCC2)c2nc3cc(-c4ccccc4OC(F)F)c(Cl)cc3[nH]2)cc1` (single isomer, unassigned) [164 or 165 made from Int-164B, (R or S)-4-(3-(6-chloro-5-(2-(difluoromethoxy)phenyl)-1H-benzo[d]imidazol-2-yl)-3-(4-((cyclopropylmethyl)sulfonyl)phenyl)propyl)morpholine], the IC50 was 0.418 µM on RORγ LBD-GST tagged and 0.35 µM in experiment [1].
Turning to `O=S(=O)(CC1CC1)c1ccc(C(CCO)c2nc3cc(Cl)c(N4CCC(F)(F)CC4)c(Cl)c3[nH]2)cc1` (single isomer, unassigned) [the longer retention time of 160 and 161, 3-(4-((cyclopropylmethyl)sulfonyl)phenyl)-3-(5,7-dichloro-6-(4,4-difluoropiperidin-1-yl)-1H-benzo[d]imidazol-2-yl)propan-1-ol], the IC50 at RORγ LBD-GST tagged is 0.003 µM; in experiment [1], 0.004 µM.
Regarding `CCS(=O)(=O)c1ccc(C(CO)c2nc3c(Cl)c(-c4ccccc4OCCOC)c(Cl)cc3[nH]2)cc1` (stereo not drawn) [Example 20, 2-(4,6-dichloro-5-(2-(2-methoxyethoxy)phenyl)-1H-benzo[d]imidazol-2-yl)-2-(4-(ethylsulfonyl)phenyl)ethanol], the IC50 against RORγ LBD-GST tagged is 0.013 µM; in experiment [1] (Homo sapiens, PBMC, 72 h), 0.056 µM.
In the same order, the values of `CCS(=O)(=O)c1ccc(Cc2nc3c(Cl)c(-c4ccccc4C(F)(F)F)c(Cl)cc3[nH]2)cc1` [Example 3, 4,6-dichloro-2-(4-(ethylsulfonyl)benzyl)-5-(2-(trifluoromethyl)phenyl)-1H-benzo[d]imidazole] are 0.373 µM and 0.052 µM.
In the same order, the values of `O=S(=O)(CC1CC1)c1ccc(Cc2nc3c(Cl)c(-c4ccccc4C(F)(F)F)c(Cl)cc3[nH]2)cc1` [Example 69, 4,6-dichloro-2-(4-((cyclopropylmethyl)sulfonyl)benzyl)-5-(2-(trifluoromethyl)phenyl)-1H-benzo[d]imidazole] are 0.007 µM and 0.056 µM.
With `CCOc1ccccc1-c1c(Cl)cc2nc(C(CO)c3ccc(S(=O)(=O)CC4CC4)cc3)[nH]c2c1Cl` (stereo not drawn) [Example 137, 2-(4-((cyclopropylmethyl)sulfonyl)phenyl)-2-(5,7-dichloro-6-(2-ethoxyphenyl)-1H-benzo[d]imidazol-2-yl)ethanol], the IC50 at RORγ LBD-GST tagged was 0.013 µM; in experiment [1] (Homo sapiens, PBMC, 72 h), 0.004 µM.
As for `NCC(c1ccc(S(=O)(=O)CC2CC2)cc1)c1nc2ccc(-c3ccccc3OC(F)F)c(Cl)c2[nH]1` (stereo not drawn) [Example 128, 2-(7-chloro-6-(2-(difluoromethoxy)phenyl)-1H-benzo[d]imidazol-2-yl)-2-(4-((cyclopropylmethyl)sulfonyl)phenyl)ethanamine], the IC50 came out at 0.006 µM at RORγ LBD-GST tagged and 0.091 µM in experiment [1] (Homo sapiens, PBMC, 72 h).
`CCS(=O)(=O)c1ccc(C(CO)c2nc3c(Cl)c(-c4ccccc4OCC(F)(F)F)c(Cl)cc3[nH]2)cc1` (stereo not drawn) [Example 32, 2-(4,6-dichloro-5-(2-(2,2,2-trifluoroethoxy)phenyl)-1H-benzo[d]imidazol-2-yl)-2-(4-(ethylsulfonyl)phenyl)ethanol]: the IC50 on RORγ LBD-GST tagged was found to be 0.052 µM; in experiment [1] (Homo sapiens, PBMC, 72 h) it was 0.007 µM.
For `O=S(=O)(CC1CC1)c1ccc(C(CO)c2nc3c(Cl)c(-c4ccccc4OC(F)(F)F)c(Cl)cc3[nH]2)c(F)c1` (stereo not drawn) [Example 81, 2-(4-((cyclopropylmethyl)sulfonyl)-2-fluorophenyl)-2-(4,6-dichloro-5-(2-(trifluoromethoxy)phenyl)-1H-benzo[d]imidazol-2-yl)ethanol], the IC50 amounted to 0.035 µM against RORγ LBD-GST tagged and 0.003 µM in experiment [1] (Homo sapiens, PBMC, 72 h).
For the molecule `CCS(=O)(=O)c1ccc(C(CCO)c2nc3c(Cl)c(N4CCC(F)(F)CC4)c(Cl)cc3[nH]2)cc1` (single isomer, unassigned) [the longer retention time of 139 and 140, 3-(4,6-dichloro-5-(4,4-difluoropiperidin-1-yl)-1H-benzo[d]imidazol-2-yl)-3-(4-(ethylsulfonyl)phenyl)propan-1-ol], the IC50 against RORγ LBD-GST tagged was 0.035 µM; in experiment [1] it was 0.026 µM.
